According to PubChem BioAssay (NCI):
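All cell lines were grown in 96-well plates and treated with compound for 48 hours. TGI: concentration producing complete growth inhibition.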

Columns and labels:
Test in all cases: NCI anticancer screen, dose series, 48 h
DMS 273 small cell lung = tested on: DMS 273 small cell lung
HL-60(TB) leukemia = tested on: HL-60(TB) leukemia
A549 NSCLC = tested on: A549 NSCLC
OVCAR-3 ovarian = tested on: OVCAR-3 ovarian
IGROV1 ovarian = tested on: IGROV1 ovarian
NCI-H23 lung = tested on: NCI-H23 lung
CAKI-1 renal = tested on: CAKI-1 renal
SN12C renal = tested on: SN12C renal
SF-539 CNS = tested on: SF-539 CNS
LXFL 529 NSCLC = tested on: LXFL 529 NSCLC
SF-268 CNS = tested on: SF-268 CNS
SK-OV-3 ovarian = tested on: SK-OV-3 ovarian
CCRF-CEM leukemia = tested on: CCRF-CEM leukemia
K-562 leukemia = tested on: K-562 leukemia
SNB-19 CNS = tested on: SNB-19 CNS
HOP-92 NSCLC = tested on: HOP-92 NSCLC
XF 498 CNS = tested on: XF 498 CNS
UO-31 renal = tested on: UO-31 renal
SK-MEL-28 melanoma = tested on: SK-MEL-28 melanoma
EKVX NSCLC = tested on: EKVX NSCLC
RPMI-8226 leukemia = tested on: RPMI-8226 leukemia
SNB-78 CNS = tested on: SNB-78 CNS
HCT-116 colon = tested on: HCT-116 colon
SK-MEL-5 melanoma = tested on: SK-MEL-5 melanoma
HCT-15 colon = tested on: HCT-15 colon
RXF 393 renal = tested on: RXF 393 renal
COLO 205 colon = tested on: COLO 205 colon
OVCAR-4 ovarian = tested on: OVCAR-4 ovarian
KM12 colon = tested on: KM12 colon
OVCAR-8 ovarian = tested on: OVCAR-8 ovarian
MALME-3M melanoma = tested on: MALME-3M melanoma
SW-620 colon = tested on: SW-620 colon
TK-10 renal = tested on: TK-10 renal
DMS 114 small cell lung = tested on: DMS 114 small cell lung
UACC-257 melanoma = tested on: UACC-257 melanoma
A498 renal = tested on: A498 renal
SNB-75 CNS = tested on: SNB-75 CNS
LOX IMVI melanoma = tested on: LOX IMVI melanoma
SK-MEL-2 melanoma = tested on: SK-MEL-2 melanoma
786-0 renal = tested on: 786-0 renal
HCC-2998 colon = tested on: HCC-2998 colon
RXF-631 renal = tested on: RXF-631 renal
DLD-1 colon = tested on: DLD-1 colon
NCI-H522 lung = tested on: NCI-H522 lung
M19-MEL melanoma = tested on: M19-MEL melanoma
U251 CNS = tested on: U251 CNS
M14 melanoma = tested on: M14 melanoma
SF-295 CNS = tested on: SF-295 CNS
UACC-62 melanoma = tested on: UACC-62 melanoma
HT29 colon = tested on: HT29 colon
NCI-H460 lung = tested on: NCI-H460 lung
MOLT-4 leukemia = tested on: MOLT-4 leukemia
HOP-62 NSCLC = tested on: HOP-62 NSCLC
OVCAR-5 ovarian = tested on: OVCAR-5 ovarian
KM20L2 colon = tested on: KM20L2 colon
NCI-H226 lung = tested on: NCI-H226 lung
SR leukemia = tested on: SR leukemia

Measured: TGI

O=C1C=C2CCCC2C(C(=O)O)(C(=O)O)C1 (centres undefined)
not listed: OVCAR-5 ovarian | KM20L2 colon | NCI-H226 lung | SR leukemia
> 100 µM: all other assays above

COc1ccc(OC)c(NC(=O)C(=O)CC(=O)c2sc(-n3nc(-c4ccccc4)cc3-c3ccccc3)nc2C)c1
not listed: SF-268 CNS | HOP-92 NSCLC | XF 498 CNS | SK-MEL-28 melanoma | EKVX NSCLC | SK-MEL-5 melanoma
> 100 µM: all other assays above
